Reference: ChEMBL document CHEMBL1143680, “Alboatisins A-C, ent-atisene diterpenoids from Isodon albopilosus” (J Nat Prod, 2007)

Tests used:
Type in all cases: functional, cell-based
[1] = tested on: A549; assay: Cytotoxicity against human A549 cells after 72 hrs by SRB assay; conditions: A549, 72 h
[2] = tested on: HT-29; assay: Cytotoxicity against human HT29 cells after 72 hrs by SRB assay; conditions: HT-29, 72 h
[3] = tested on: K562; assay: Cytotoxicity against human K562 cells after 72 hrs by SRB assay; conditions: K562, 72 h

For C=C1C(=O)[C@]23C[C@@H](O)[C@H]1C[C@H]2[C@]1(C)CCC[C@](C)(CO)[C@H]1C[C@H]3O [ALBOATISIN C], the IC50 [1] was 12.5 µM, the IC50 [2] was 20.6 µM and the IC50 [3] was 28 µM.

Compound C=C1C(=O)[C@@]23[C@H](O)C[C@@H]4[C@@](C)(CO)CCC[C@@]4(C)[C@@H]2C[C@@H]1[C@H](O)[C@H]3O [ALBOATISINS A] has an IC50 [1] of 10.5 µM, an IC50 [2] of 15.6 µM and an IC50 [3] of 24.6 µM.

C=C1C(=O)[C@@]23[C@H](O)C[C@H]4[C@@](C)(CCC[C@]4(C)C=O)[C@@H]2C[C@@H]1[C@H](O)[C@H]3O [ALBOATISINS B] showed an IC50 [1] of 8.3 µM, an IC50 [2] of 7.9 µM and an IC50 [3] of 13.6 µM.
